Measurements reported in patent US4268510A, “1,3-Benzoxazine trichloromethyl derivatives, compositions and use” (Imperial Chemical Industries Limited, priority 1978, dated 1981).
In brackets after ≈: the same amount, converted by molar mass.

Tested on: methane production from ruminal fluid
Assay: in vitro assay of inhibition of methane production from ruminal fluid
Assay type: cell-based, steers (pooled rumen fluid)
Settings: at 1 μg./ml.; in vitro rumen fluid, 39° C., 15-16 hours
Protocol: Rumen fluid is collected on a regular routine basis from two steers, which are fed on the same hay-plus-concentrate diet. Sampling time is standardised as far as possible, and the fluid from the two animals is pooled on a 50/50 basis. Large particulate matter is removed by filtering the pooled fluid through four layers of muslin cloth. The filtrate is then diluted in the ratio of one volume of filtrate to three volumes of an artificial rumen fluid (prepared as described by G. L. Bales et al., Journal of Dairy Science, 1976, volume 59, page 1850, but omitting acetic acid), and the pH of the mixture is adjusted to 6.9-7.0 with saturated aqueous sodium carbonate solution. Aliquots (50 ml.) of this mixture are dispensed into 100 ml. conical flasks containing dried ground hay (0.5 g.), and each flask is used to test a test compound at a particular concentration.
The test compound is added to the conical flask as a solution in ethanol, the flask is flushed with carbon dioxide gas, stoppered with a suba-seal, and incubated at 39° C. for 15-16 hours. After one hour, a narrow bore needle is inserted through the suba-seal to relieve the gas pressure, and the needle is withdrawn 30 minutes before the incubation is ended. Fermentation is then stopped by placing the flask in ice, and after 15 minutes cooling, the gas over the liquid is analysed for methane by gas chromatography, and the concentration of the test compound required to produce a 50% reduction in methane production (ED50 in μg./ml.) is calculated.
The test of methane inhibition described in Example 12 was repeated for various other compounds, to give the results shown below. The results are expressed as the percentage inhibition of methane production caused by 1 μg./ml. of a test compound, except for those compounds indicated by *, for which 3 μg./ml. was used.

SMILES	inhibition at 1 µg/mL [%]
Cc1ccc(S(=O)(=O)Nc2ccc3c(c2)C(=O)NC(C(Cl)(Cl)Cl)O3)cc1 (centres unmarked) [3,4-dihydro-6-tosylamino-2-trichloromethyl-2H-benzo[e]-[1,3]-oxazin-4-one]	94
O=C(O)c1cc(C(=O)O)c2c(c1)C(=O)NC(C(Cl)(Cl)Cl)O2 (centres unmarked) [drawing 8; R1=COOH; R3=COOH; R5=H, 3,4-dihydro-4-oxo-2-trichloromethyl-2H-benzo[e]-[1,3]-oxazine-6,8-dicarboxylic acid]	38
CC(=O)Nc1ccc2c(c1)C(=O)NC(C(Cl)(Cl)Cl)O2 (centres unmarked) [drawing 8; R1=H; R3=CH3 CONH; R5=H, 6-acetamido-3,4-dihydro-2-trichloromethyl-2H-benzo[e]-[1,3]-oxazin-4-one]	96
O=Cc1ccc2c(c1)C(=O)NC(C(Cl)(Cl)Cl)O2 (centres unmarked) [drawing 8; R1=H; R3=CHO; R5=H]	47
CN1C(=O)c2ccccc2OC1C(Cl)(Cl)Cl (centres unmarked) [drawing 8; R1=H; R3=H; R5=CH3, 3,4-dihydro-3-methyl-2-trichloromethylbenzo[e]-[1,3]-oxazin-4-one]	100

Same assay, conditions: at 3 μg./ml.; in vitro rumen fluid, 39° C., 15-16 hours; read-out: % Methane Inhibition (compounds indicated by *)

SMILES	inhibition at 3 µg/mL [%]
O=C1NC(C(Cl)(Cl)Cl)Oc2ccc(NCc3ccc(Cl)cc3)cc21 (centres unmarked) [6-p-chlorobenzylamino-3,4-dihydro-2-tichloromethyl-2H-benzo[e]-[1,3]-oxazin-4l-one]	86
N#Cc1ccc2c(c1)C(=O)NC(C(Cl)(Cl)Cl)O2 (centres unmarked) [drawing 8; R1=H; R3=CN; R5=H, 3,4-dihydro-4-oxo-2-trichloromethyl-2H-benzo[e]-[1,3]-oxazine-6-carbonitrile]	87

Same assay, conditions: in vitro, diluted rumen fluid with dried ground hay, pH 6.9-7.0, 39° C., 15-16 hours; read-out: ED50, concentration of the test compound required to produce a 50% reduction in methane production

IC50 [µg/mL]	SMILES
0.3 (≈ 1 µM)	O=C1NC(C(Cl)(Cl)Cl)Nc2ccc(Cl)cc21 (centres unmarked) [drawing 5; R3=Cl; R5=H; R6=H]
1 (≈ 3.41 µM)	CN1C(=O)c2ccccc2N(C)C1C(Cl)(Cl)Cl (centres unmarked) [drawing 5; R3=H; R5=CH3; R6=CH3]
1 (≈ 3.58 µM)	CN1C(=O)c2ccccc2NC1C(Cl)(Cl)Cl (centres unmarked) [drawing 5; R3=H; R5=CH3; R6=H]
0.3 (≈ 1.07 µM)	CN1c2ccccc2C(=O)NC1C(Cl)(Cl)Cl (centres unmarked) [drawing 5; R3=H; R5=H; R6=CH3]
0.3 (≈ 1.13 µM)	O=C1NC(C(Cl)(Cl)Cl)Nc2ccccc21 (centres unmarked) [drawing 5; R3=H; R5=H; R6=H, 1,2-dihydro-2-trichloromethylquinazolin-4-one]
3 (≈ 9.66 µM)	O=C1NC(C(Cl)(Cl)Cl)Nc2ccc([N+](=O)[O-])cc21 (centres unmarked) [drawing 5; R3=NO2; R5=H; R6=H, 1,2-dihydro-6-nitro-2-trichloromethylquinazolin-4-one]
0.3 (≈ 0.82 µM)	CCN(CC)C(=O)c1ccc2c(c1)C(=O)NC(C(Cl)(Cl)Cl)O2 (centres unmarked) [drawing 6; R3=(C2 H5)2 N . CO; R5=H, 3,4-dihydro-N,N-diethyl-4-oxo-2-trichloromethyl-2H-benzo[e]-[1,3]-oxazine-6-carboxamide]
0.5 (≈ 1.45 µM)	O=C1NC(C(Cl)(Cl)Cl)Oc2ccc(Br)cc21 (centres unmarked) [drawing 6; R3=Br; R5=H]
0.3 (≈ 0.76 µM)	CCC(=O)Oc1ccc2c(c1)C(=O)N(C(=O)CC)C(C(Cl)(Cl)Cl)O2 (centres unmarked) [drawing 6; R3=C2 H5 CO . O; R5=C2 H5 CO, 3,4-dihydro-3-propionyl-6-propionyloxy-2-trichloromethyl-2H-benzo[e]-[1,3]-oxazin-4-one]
0.3 (≈ 0.886 µM)	CCC(=O)Oc1ccc2c(c1)C(=O)NC(C(Cl)(Cl)Cl)O2 (centres unmarked) [drawing 6; R3=C2 H5 CO . O; R5=H, 3,4-dihydro-6-propionyloxy-2-trichloromethyl-2H-benzo[e]-[1,3]-oxazin-4-one]
10 (≈ 26.8 µM)	O=C1NC(C(Cl)(Cl)Cl)Oc2ccc(OCc3ccccc3)cc21 (centres unmarked) [drawing 6; R3=C6 H5 . CH2 O; R5=H, 6-benzyloxy-3,4-dihydro-2-trichloromethyl-2H-benzo[e]-[1,3]-oxazin-4-one]
0.3 (≈ 0.853 µM)	CCCNC(=O)c1ccc2c(c1)C(=O)NC(C(Cl)(Cl)Cl)O2 (centres unmarked) [drawing 6; R3=CH3 (CH2)2 NH . CO; R5=H, 3,4-dihydro-4-oxo-N-propyl-2-trichloromethyl-2H-benzo[e]-[1,3]-oxazine-6-carboxamide]
1 (≈ 2.73 µM)	CCCCOC(=O)c1ccc2c(c1)C(=O)NC(C(Cl)(Cl)Cl)O2 (centres unmarked) [drawing 6; R3=CH3 (CH2)3 O . CO; R5=H, butyl 3,4-dihydro-4-oxo-2-trichloromethyl-2H-benzo[e]-[1,3]-oxazine-6-carboxylate]
3 (≈ 8.86 µM)	CCCCOc1ccc2c(c1)C(=O)NC(C(Cl)(Cl)Cl)O2 (centres unmarked) [drawing 6; R3=CH3 (CH2)3 O; R5=H, 6-butyloxy-3,4-dihydro-2-trichloromethyl-2H-benzo[e]-[1,3]-oxazin-4-one]
3 (≈ 9.24 µM)	COC(=O)c1ccc2c(c1)C(=O)NC(C(Cl)(Cl)Cl)O2 (centres unmarked) [drawing 6; R3=CH3 O . CO; R5=H, methyl 3,4-dihydro-4-oxo-2-trichloromethyl-2H-benzo[e]-[1,3]-oxazine-6-carboxylate]
3 (≈ 9.66 µM)	COc1ccc2c(c1)C(=O)N(C)C(C(Cl)(Cl)Cl)O2 (centres unmarked) [drawing 6; R3=CH3 O; R5=CH3, 3,4-dihydro-6-methoxy-3-methyl-2-trichloromethyl-2H-benzo[e]-[1,3]-oxazin-4-one]

IC50 [µg/mL]	SMILES
0.5 (≈ 1.69 µM)	COc1ccc2c(c1)C(=O)NC(C(Cl)(Cl)Cl)O2 (centres unmarked) [drawing 6; R3=CH3 O; R5=H, 3,4-dihydro-6-methoxy-2-trichloromethyl-2H-benzo[e]-[1,3]-oxazin-4-one]
1 (≈ 3.56 µM)	Cc1ccc2c(c1)C(=O)NC(C(Cl)(Cl)Cl)O2 (centres unmarked) [drawing 6; R3=CH3; R5=H]
1 (≈ 3.24 µM)	CC(=O)N1C(=O)c2ccccc2OC1C(Cl)(Cl)Cl (centres unmarked) [drawing 6; R3=H; R5=CH3 CO, 3-acetyl-3,4-dihydro-2-trichloromethyl-2H-benzo[e]-[1,3]-oxazin-4-one]
0.5 (≈ 1.88 µM)	O=C1NC(C(Cl)(Cl)Cl)Oc2ccccc21 (centres unmarked) [drawing 6; R3=H; R5=H, 3,4-dihydro-2-trichloromethyl-2H-benzo[e]-[1,3]-oxazin-4-one]
0.5 (≈ 1.7 µM)	O=CN1C(=O)c2ccccc2OC1C(Cl)(Cl)Cl (centres unmarked) [drawing 6; R3=H; R5=HCO, 3-formyl-3,4-dihydro-2-trichloromethyl-2H-benzo[e]-[1,3]-oxazin-4-one]
0.3 (≈ 0.966 µM)	O=C(O)c1ccc2c(c1)C(=O)NC(C(Cl)(Cl)Cl)O2 (centres unmarked) [drawing 6; R3=HO . CO; R5=H, 3,4-dihydro-4-oxo-2-trichloromethyl-2H-benzo[e]-[1,3]-oxazine-6-carboxylicacid]
0.5 (≈ 1.77 µM)	O=C1NC(C(Cl)(Cl)Cl)Oc2ccc(O)cc21 (centres unmarked) [drawing 6; R3=HO; R5=H, 3,4-dihydro-6-hydroxy-2-trichloromethyl-2H-benzo[e]-[1,3]-oxazin-4-one]
0.3 (≈ 0.969 µM)	NC(=O)c1ccc2c(c1)C(=O)NC(C(Cl)(Cl)Cl)O2 (centres unmarked) [drawing 6; R3=NH2 CO; R5=H, 3,4-dihydro-4-oxo-2-trichloromethyl-2H-benzo[e]-[1,3]-oxazine-6-carboxamide]
1 (≈ 3.21 µM)	O=C1NC(C(Cl)(Cl)Cl)Oc2ccc([N+](=O)[O-])cc21 (centres unmarked) [drawing 6; R3=NO2; R5=H]
1 (≈ 2.37 µM)	O=C(Oc1ccc2c(c1)C(=O)NC(C(Cl)(Cl)Cl)O2)c1ccc(Cl)cc1 (centres unmarked) [drawing 6; R3=p-Cl . C6 H4 CO . O; R5=H, 6-p-chlorobenzoyloxy-3,4-dihydro-2-trichloromethyl-2H-benzo[e]-[1,3]-oxazin-4-one]
0.3 (≈ 1.06 µM)	COc1ccc2c(c1)COC(C(Cl)(Cl)Cl)N2 (centres unmarked) [drawing 7; R3=CH3 O, 1,2-dihydro-6-methoxy-2-trichloromethyl-4H-benzo[d]-[1,3]-oxazine]
3 (≈ 11.3 µM)	Cc1ccc2c(c1)COC(C(Cl)(Cl)Cl)N2 (centres unmarked) [drawing 7; R3=CH3, 1,2-dihydro-6-methyl-2-trichloromethyl-4H-benzo[d]-[1,3]oxazine]
0.3 (≈ 1.08 µM)	N#Cc1ccc2c(c1)COC(C(Cl)(Cl)Cl)N2 (centres unmarked) [drawing 7; R3=CN, 1,2-dihydro-2-trichloromethyl-4H-benzo[d]-[1,3]-oxazine-6-carbonitrile]
1 (≈ 3.96 µM)	ClC(Cl)(Cl)C1Nc2ccccc2CO1 (centres unmarked) [drawing 7; R3=H, 1,2-dihydro-2-trichloromethyl-4H-benzo[d]-[1,3]-oxazine]
1 (≈ 2.64 µM)	ClC(Cl)(Cl)C1Nc2ccc(I)cc2CO1 (centres unmarked) [drawing 7; R3=I]
0.5 (≈ 1.68 µM)	O=[N+]([O-])c1ccc2c(c1)COC(C(Cl)(Cl)Cl)N2 (centres unmarked) [drawing 7; R3=NO2, 1,2-dihydro-6-nitro-2-trichloromethyl-4H-benzo[d]-[1,3]oxazine]

SMILES	IC50 [µg/mL]
CC(=O)Oc1ccc2c(c1)C(=O)N(C(C)=O)C(C(Cl)(Cl)Cl)O2 (centres unmarked) [drawing 6; R3=CH3 CO . O; R5=CH3 CO, 6-acetoxy-3-acetyl-3,4-dihydro-2-trichloromethyl-2H-benzo[e]-[1,3]-oxazin-4-one]	1 (≈ 2.73 µM)
CC(=O)Oc1ccc2c(c1)C(=O)NC(C(Cl)(Cl)Cl)O2 (centres unmarked) [drawing 6; R3=CH3 CO . O; R5=H, 6-acetoxy-3,4-dihydro-2-trichloromethyl-2H-benzo[e]-[1,3]-oxazin-4-one]	0.3 (≈ 0.924 µM)
